{
  "source": "patent US6683072B1",
  "about": "“Compositions and methods for treatment of irritable bowel syndrome and nonulcer dyspepsia” (Vela Pharmaceuticals, Inc., priority 2003, dated 2004)",
  "tested_on": "colonic propulsive motility in mice",
  "test": "Glass bead test of colonic propulsive motility in mice",
  "settings": "for Expulsion Time (min.) Mean ± SEM: 3 mm glass bead inserted 30 min after dosing, female Swiss Webster mice",
  "data": [
    {"smiles": "CN(C)C(=O)C(CCN1CCC(O)(c2ccc(Cl)cc2)CC1)(c1ccccc1)c1ccccc1", "note": "[loperamide]", "values": [
      {"measurement": "Expulsion Time (min.) Mean ± SEM", "setting": "10 mg/kg PO", "value": "26.0 ± 2.6", "unit": "min"},
      {"measurement": "inhibition at 10 mg/kg", "setting": "Mus musculus, po", "value": 81, "unit": "%"}
    ]},
    {"smiles": "CN1c2ccccc2C(NCCCCCCC(=O)O)c2ccc(Cl)cc2S1(=O)=O", "note": "(stereo not shown) [tianeptine, 7-[(3-chloro-6,11-dihydro-6-methyl-dibenzo[c,f][1,2]thiazepin-11-yl)amino] heptanoic acid S,S-dioxide]", "values": [
      {"measurement": "Expulsion Time (min.) Mean ± SEM", "setting": "10 mg/kg PO", "value": "16.6 ± 3.6", "unit": "min"},
      {"measurement": "Expulsion Time (min.) Mean ± SEM", "setting": "30 mg/kg PO", "value": "25.7 ± 2.3", "unit": "min"},
      {"measurement": "effect compared with 10 mg/kg dose of loperamide", "setting": "30 mg/kg tianeptine PO", "value": "equivalent in effect to a 10 mg/kg dose of loperamide"},
      {"measurement": "Expulsion Time (min.) Mean ± SEM", "setting": "60 mg/kg PO", "value": "29.8 ± 0.2", "unit": "min"},
      {"measurement": "effect on colonic propulsion (in words)", "setting": "10, 30 and 60 mg/kg PO", "value": "dose-related inhibition of colonic propulsion"},
      {"measurement": "inhibition at 10 mg/kg", "setting": "Mus musculus, po", "value": 38, "unit": "%"},
      {"measurement": "inhibition at 30 mg/kg", "setting": "Mus musculus, po", "value": 80, "unit": "%"},
      {"measurement": "inhibition at 60 mg/kg", "setting": "Mus musculus, po", "value": 98, "unit": "%"}
    ]}
  ]
}
